Experimental data from EP0223671A1, “Medicament with a synergistic anti-inflammatory effect on the basis of a corticosteroid and a beta-agonist” (CENTRE INTERNATIONAL DE RECHERCHES DERMATOLOGIQUES GALDERMA …, priority 1985, dated 1987).
Counter-ions that a name gives are not always drawn. Marks after values point to notes of the source that are not given here.

Assays:
[1] = tested on: oedème de l'oreille induit par l'huile de croton; assay: Croton oil-induced ear oedema test in the rat; format: in vivo; conditions: inhibition of oedema vs control animals, topical on right ear 1 h before croton oil, read 6 h after, hydro-ethanolic gel vehicle
Experimental: On applique de façon normalisée sur les faces interne et externe de l'oreille droite de rats une solution d'huile de croton ayant la composition suivante: • - pyridine : 4ml • - oxyde de diéthyle: 13ml • - huile de croton^*: 2ml • - eau qsp 20ml ^* SIGMA réf. C4755
Les animaux traités reçoivent, une heure avant l'application de l'huile de croton, une application sur l'oreille droite par voie topique, du produit étudié dans le véhicule suivant (placebo):gel hydroéthanolique à 2X d'hydroxypropyl cellulose (KLUCEL HF); (proportion eau-éthanol : 80/20).
Les animaux témoins ne reçoivent que l'application d'huile de croton.
Six heures après l'application d'huile de croton, on évalue l'importance de l'oedème par comparaison de l'oreille droite et de l'oreille gauche. On calcule ensuite l'inhibition de l'oedème, en pourcentage, par rapport aux animaux témoins.

érythème induit par UVB = assay: UVB-induced erythema test in the guinea pig; format: in vivo, cobaye; conditions: dose 5 % p/v, 100 microlitres per site, topical 1 h after irradiation; vs animals given vehicle alone
Experimental: Les flancs des cobayes sont rasés à la tondeuse 24 heures avant l'expérience. On soumet les animaux à une irradiation à l'aide d'une lampe à vapeur de mercure. On irradie pendant 30 secondes deux sites de diamètre 1,5cm sur chaque flanc. Une heure après l'irradiation, on applique par voie topique le produit étudié sur chaque site irradié d'un seul flanc. Les observations de l'érythème sont faites 2h, 3,5h, 5h et 24h après l'application du produit. L'érythème est évalué selon une échelle de 0 à 5.
Les produits sont appliqués dans le véhicule suivant: • N,N-diméthylacétamide: 20ml • acétone : 40ml • éthanol : 40ml
On applique un volume de 100 microlitres par site.
On évalue l'importance de l'érythème en comparant les flancs droit et gauche. On calcule ensuite l'inhibition de l'érythème, en pourcentage, par rapport aux animaux témoins ayant reçu une application du véhicule seul.

| SMILES | POURCENTAGE D'INHIBITION ([1]; dose 0.1 % p/v) | POURCENTAGE D'INHIBITION DE L'ERYTHEME 5 HEURES APRES APPLICATION (érythème induit par UVB) | POURCENTAGE D'INHIBITION ([1]; dose 0.5 % p/v) | also measured |
| --- | --- | --- | --- | --- |
| CCCC(=O)O[C@]1(C(=O)CO)CC[C@H]2[C@@H]3CCC4=CC(=O)CC[C@]4(C)[C@H]3[C@@H](O)C[C@@]21C [HYDROCORTISONE 17 BUTYRATE, Hydrocortisone-17 butyrate] | 30% |  |  |  |
| C[C@]12CCC(=O)C=C1CC[C@@H]1[C@@H]2[C@@H](O)C[C@@]2(C)[C@H]1CC[C@]2(O)C(=O)CO [HYDROCORTISONE, Hydrocortisone] | 14% | 3 NS % |  |  |
| CC(C)NCC(O)COc1cccc2ccccc12 (stereo not shown) [PROPRANOLOL] |  |  |  | P[…]'INHIBITION ([1]; dose 0.5 % p/v): 5% |
| CC(C)(C)NCC(O)c1ccc(O)c(CO)c1 (stereo not shown) [SALBUTAMOL SULFATE, 2-(tert-butylamino)-1-(4-hydroxy-3-hydroxyphényl)éthanol] |  |  | 14% |  |
| CC(C)(C)NCC(O)c1ccc(O)c(CO)c1 (stereo not shown) [SALBUTAMOL, 2-(tert-butylamino)-1-(4-hydroxy-3-hydroxyphényl)éthanol] |  | 14 * % |  |  |
| CC(C)(C)NCC(O)c1cc(O)cc(O)c1 (stereo not shown) [TERBUTALINE SULFATE, 1-(3,5-dihydroxyphényl)-2-(tert-butylamino)éthanol] |  |  | 12% |  |
